{"source": "patent US7645881B2", "about": "“Methods for treating hepatitis C” (PTC Therapeutics, Inc., priority 2004, dated 2010)", "key": {"HCV replicon": {"system": "HCV replicon", "assay": "microbe, parasite or virus in culture", "format": "cell-based", "conditions": "Hepatitis C virus, 48 h, read-out: Replicon IC50s μM"}, "[1]": {"system": "wild-type poliovirus (WT-PV)", "format": "cell-based", "conditions": "HeLa cells, MOI 0.1, compound for one day, decrease of cytopathic effect"}, "[2]": {"system": "cap-dependent translation", "assay": "Western blot of Fluc protein in pLuc cells (cap-dependent translation)", "format": "cell-based, human", "conditions": "20 hours, data not shown"}}}
{"smiles": "CCc1c(C)nc2sc(NC(=O)C(C)(C)C)c(C#N)c2c1C", "note": "[Compound 50]", "values": [{"measurement": "IC50", "setting": "HCV replicon", "result": "> 2", "unit": "µM"}, {"measurement": "melting point", "result": "164 to 166", "unit": "°C"}, {"measurement": "WTPV CPE (1.2 μM)", "setting": "[1]", "result": 0}, {"measurement": "WTPV CPE (11.1 μM)", "setting": "[1]", "result": "1 (A “1” in the WT-PV CPE columns indicates that the CPE (cytopathic effect) is decreased by 20-50%.)"}, {"measurement": "WTPV CPE (100 μM)", "setting": "[1]", "result": "3 (A “3” in the WT-PV CPE columns indicates that the CPE is decreased by 75-100%.)"}]}
{"smiles": "CCc1c(C)nc2sc(N)c(C#N)c2c1C", "note": "[Compound 35, 2-amino-5-ethyl-4,6-dimethylthieno[2,3-b]pyridine-3-carbonitrile]", "values": [{"measurement": "IC50", "setting": "HCV replicon", "result": "> 2", "unit": "µM"}, {"measurement": "melting point", "result": "223 to 225", "unit": "°C"}, {"measurement": "WTPV CPE (1.2 μM)", "setting": "[1]", "result": 0}, {"measurement": "WTPV CPE (11.1 μM)", "setting": "[1]", "result": "1 (A “1” in the WT-PV CPE columns indicates that the CPE (cytopathic effect) is decreased by 20-50%.)"}, {"measurement": "WTPV CPE (100 μM)", "setting": "[1]", "result": "2 (A “2” in the WT-PV CPE columns indicates that the CPE is decreased by 50-75%.)"}]}
{"smiles": "CN1CCN(C(=O)c2sc3nc4c(c(C(F)(F)F)c3c2N)CCCCC4)CC1", "note": "[Compound 5]", "values": [{"measurement": "IC50", "setting": "HCV replicon", "result": "> 2", "unit": "µM"}, {"measurement": "WTPV CPE (1.2 μM)", "setting": "[1]", "result": 0}, {"measurement": "WTPV CPE (11.1 μM)", "setting": "[1]", "result": "1 (A “1” in the WT-PV CPE columns indicates that the CPE (cytopathic effect) is decreased by 20-50%.)"}, {"measurement": "WTPV CPE (100 μM)", "setting": "[1]", "result": "2 (A “2” in the WT-PV CPE columns indicates that the CPE is decreased by 50-75%.)"}]}
{"smiles": "COc1ccc(C[C@H](N)C(=O)N[C@H]2[C@@H](O)[C@H](n3cnc4c(N(C)C)ncnc43)O[C@@H]2CO)cc1", "note": "[puromycin]", "values": [{"measurement": "cap-dependent protein production (luciferase reporter protein level, Western blot)", "setting": "[2]", "result": "inhibited"}]}
{"smiles": "Nc1c(C(=O)Nc2ccc(C(F)(F)F)cc2)sc2nc3c(cc12)CCCCC3", "note": "[Compound 29]", "values": [{"measurement": "IC50", "setting": "HCV replicon", "result": "> 2", "unit": "µM"}, {"measurement": "WTPV CPE (1.2 μM)", "setting": "[1]", "result": 0}, {"measurement": "WTPV CPE (11.1 μM)", "setting": "[1]", "result": "1 (A “1” in the WT-PV CPE columns indicates that the CPE (cytopathic effect) is decreased by 20-50%.)"}, {"measurement": "WTPV CPE (100 μM)", "setting": "[1]", "result": "2 (A “2” in the WT-PV CPE columns indicates that the CPE is decreased by 50-75%.)"}]}
{"smiles": "Cc1cccc(-c2nnc(-c3sc4nc(C)c(C)c(C)c4c3N)o2)c1", "note": "[Compound 7]", "values": [{"measurement": "IC50", "setting": "HCV replicon", "result": "0.5 to 2", "unit": "µM"}, {"measurement": "melting point", "result": "268 to 270", "unit": "°C"}]}
{"smiles": "CCc1c(C)nc2sc(C(=O)SC(C)(C)C)cc2c1C", "note": "[Compound 65]", "values": [{"measurement": "IC50", "setting": "HCV replicon", "result": "0.5 to 2", "unit": "µM"}, {"measurement": "melting point", "result": "109.6 to 110.2", "unit": "°C"}]}
{"smiles": "Cc1nc2sc(-c3nnc(-c4ccc(Cl)cc4)o3)c(N)c2c(C)c1C", "note": "[Compound 12]", "values": [{"measurement": "IC50", "setting": "HCV replicon", "result": "> 2", "unit": "µM"}, {"measurement": "melting point", "result": "331 to 332", "unit": "°C"}]}
{"smiles": "Nc1c(C(=O)N2CCOCC2)sc2nc3c(cc12)CCCCC3", "note": "[Compound 1]", "values": [{"measurement": "IC50", "setting": "HCV replicon", "result": "> 2", "unit": "µM"}, {"measurement": "melting point", "result": "203 to 204", "unit": "°C"}]}
{"smiles": "Cc1nc2sc(-c3nc(-c4cccnc4)no3)c(N)c2c(C)c1C", "note": "[Compound 25]", "values": [{"measurement": "IC50", "setting": "HCV replicon", "result": "0.5 to 2", "unit": "µM"}, {"measurement": "melting point", "result": "278 to 280", "unit": "°C"}]}
